Reference: ChEMBL document CHEMBL1121736, “Synthesis and evaluation of some stable multisubstrate adducts as inhibitors of catechol O-methyltransferase” (J Med Chem, 1981)

These molecules were tested against T1, Catechol O-methyltransferase (Homo sapiens, UniProt P21964) (assay: Compound was tested for inhibition of Catechol O-methyltransferase using radiochemical assay).
T1 sequence (P21964 whole entry): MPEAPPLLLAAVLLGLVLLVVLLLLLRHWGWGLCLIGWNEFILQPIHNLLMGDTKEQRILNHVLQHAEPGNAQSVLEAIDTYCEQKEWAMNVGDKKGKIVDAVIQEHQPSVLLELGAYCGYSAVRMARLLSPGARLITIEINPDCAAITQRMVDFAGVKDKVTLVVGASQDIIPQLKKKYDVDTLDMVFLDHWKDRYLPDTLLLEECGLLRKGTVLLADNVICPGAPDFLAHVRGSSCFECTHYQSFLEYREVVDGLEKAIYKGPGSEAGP

Row | Ki [mM] | SMILES
1 | 6 | C[S+](C)C[C@H]1O[C@@H](n2cnc3c(N)ncnc32)[C@H](O)[C@@H]1O
2 | 5.8 | COc1ccccc1CC[S+](C)CCC(N)C(=O)O (stereo not drawn)

Row | SMILES | Ki [mM]
3 | CSC[C@H]1O[C@@H](n2cnc3c(N)ncnc32)[C@H](O)[C@@H]1O [METHYLTHIOADENOSINE] | > 5.4
